Experiments:
Musca domestica [1] = test: knockdown of houseflies (MD/KD); format: in vivo, Musca domestica (houseflies - adults); conditions: 500 ppm, cotton wool/sugar, 4 hours; for pest or weed control at 500 ppm: Musca domestica, read-out: grading of knockdown, MD/KD
Description: (§1) The activity of the Product was determined using a variety of insect pests. The Product was used in the form of liquid preparations containing 500 or 100 parts per million (ppm) by weight of the Product. The preparations were made by dissolving the Product in acetone and diluting the solutions with water containing 0.01% by weight of a wetting agent sold under the trade name "LISSAPOL" NX until the liquid preparations contained the required concentration of the Product. "Lissapol" is a Registered Trade Mark.
(§2) The test procedure adopted with regard to each pest was basically the same and comprised supporting a number of the pests on a medium which was usually a host plant or a foodstuff on which the pests feed, and treating either or both the pests and the medium with the preparations. The mortality of the pests was then assessed at periods usually varying from one to three days after the treatment.
In case of the species Musca domestica (housefly), additional tests to determine the knockdown effect of the compounds were performed.
(§3) The results of the tests are given in Table IV for each of the Products, at the rate in parts per million given in the second column as a grading of mortality designated as A, B or C wherein A indicates 80-100% mortality or knockdown, B indicates 50-79% mortality or knockdown and C indicates less than 50% mortality or knockdown.
(§4) In Table IV the pest organism used is designated by a letter code and the pests species, the support medium or food, and the type and duration of test is given in Table III.

Blattella germanica = test: mortality of cockroach nymphs (BG), residual test; format: in vivo, Blattella germanica (cockroach nymphs); conditions: 500 ppm, plastic pot, 3 days; for mortality at 500 ppm: Blattella germanica, 72 h, read-out: grading of mortality, BG
Description: as §1, §2, §3, §4

Diabrotica balteata = test: mortality of rootworm larvae (DB), residual test; format: in vivo, Diabrotica balteata (rootworm larvae); conditions: 500 ppm, filter paper/maize seed, 3 days; for grading of mortality, DB: 4320 min; for mortality at 500 ppm: Diabrotica balteata, in Zea mays, 72 h, read-out: grading of mortality, DB
Description: as §1, §2, §3, §4

Myzus persicae = test: mortality of aphids (MP), contact test; format: in vivo, Myzus persicae (aphids); conditions: 500 ppm, leaf, 2 days; for grading of mortality, MP: 2880 min; for mortality at 500 ppm: Myzus persicae, 48 h, read-out: grading of mortality, MP
Description: as §1, §2, §3, §4

Tetranychus urticae = test: mortality of red spider mites (TU), contact test; format: in vivo, Tetranychus urticae (red spider mites - adult); conditions: 500 ppm, French bean leaf, 3 days; for mortality at 500 ppm: Tetranychus urticae, 72 h, read-out: grading of mortality, TU
Description: as §1, §2, §3, §4
(red spider mites - adult)

Nilaparvata lugens = test: mortality of green leaf hopper (NL), contact test; format: in vivo, Nilaparvata lugens (brown planthopper); conditions: 500 ppm, cabbage leaf, 6 days; for grading of mortality, NL: 8640 min; for mortality at 500 ppm: Nilaparvata lugens, in Brassica oleracea, 144 h, read-out: grading of mortality, NL
Description: as §1, §2, §3, §4

Heliothis viriscens = test: whole plant or invertebrate; format: in vivo, Heliothis viriscens (tobacco budworm); conditions: in Gossypium hirsutum, 72 h, read-out: grading of mortality, HV
Description: as §1, §2, §3, §4

Musca domestica [2] = test: mortality of houseflies (MD), contact test; format: in vivo, Musca domestica (houseflies - adults); conditions: 500 ppm, cotton wool/sugar, 1 day; for mortality at 500 ppm: Musca domestica, 24 h, read-out: grading of mortality, MD
Description: as §1, §2, §3, §4

Chilo partellurs = test: mortality of stem borers (CP), residual test; format: in vivo, Chilo partellurs (Stem borers); conditions: 500 ppm, oil seed rape leaf, 3 days; for mortality at 500 ppm: Chilo, 72 h, read-out: grading of mortality, CP
Description: as §1, §2, §3, §4

SMILES | pest or weed control at 500 ppm (Musca domestica [1]) [%] | mortality at 500 ppm (Blattella germanica) [%] | grading of mortality, DB (Diabrotica balteata) | grading of mortality, MP (Myzus persicae) | mortality at 500 ppm (Tetranychus urticae) [%] | grading of mortality, NL (Nilaparvata lugens) | mortality at 500 ppm (Heliothis viriscens) [%] | mortality at 500 ppm (Musca domestica [2]) [%] | mortality at 500 ppm (Chilo partellurs) [%] | mortality at 500 ppm (Diabrotica balteata) [%] | mortality at 500 ppm (Myzus persicae) [%] | mortality at 500 ppm (Nilaparvata lugens) [%] | grading of knockdown, MD/KD (Musca domestica [1]) | grading of mortality, BG (Blattella germanica) | grading of mortality, TU (Tetranychus urticae) | grading of mortality, MD (Musca domestica [2]) | grading of mortality, CP (Chilo partellurs)
CC(C)(C=Cc1ccc(Cl)cc1)COCc1cccc(Oc2ccccc2)c1 [Compound 1, 3,3-Dimethyl-1-(4-chlorophenyl)-4-(3-phenoxybenzyloxy)but-1-ene] | 80 to 100 | < 50 | C (C indicates less than 50% mortality or knockdown) | C (C indicates less than 50% mortality or knockdown) | 50 to 79 | B (B indicates 50-79% mortality or knockdown) | 80 to 100 | 50 to 79 | 80 to 100 | – | – | – | – | – | – | – | –
CC(C)(/C=C\c1ccc(Cl)cc1)COCc1cccc(Oc2ccccc2)c1 [Compound 2, 3,3-Dimethyl-1-(4-chlorophenyl)-4-(3-phenoxybenzyloxy)but-1-ene] | < 50 | < 50 | – | – | < 50 | – | < 50 | < 50 | 50 to 79 | < 50 | < 50 | < 50 | – | – | – | – | –
CCOc1ccc(/C=C\C(C)(C)COCc2cccc(Oc3ccccc3)c2)cc1 [Compound 3, 3,3-Dimethyl-1-(4-ethoxyphenyl)-4-(3-phenoxybenzyloxy)but-1-ene] | < 50 | < 50 | – | – | < 50 | – | < 50 | < 50 | < 50 | < 50 | < 50 | < 50 | – | – | – | – | –
CCOc1ccc(/C=C/C(C)(C)COCc2cccc(Oc3ccccc3)c2)cc1 [Compound 4, 3,3-Dimethyl-1-(4-ethoxyphenyl)-4-(3-phenoxybenzyloxy)but-1-ene] | < 50 | < 50 | – | – | < 50 | – | < 50 | < 50 | < 50 | < 50 | < 50 | < 50 | – | – | – | – | –
CC(C)(/C=C\c1ccc(F)cc1)COCc1ccc(F)c(Oc2ccccc2)c1 [Compound 5, 3,3-dimethyl-1-(4-fluorophenyl)-4-(4-fluoro-3-phenoxybenzyloxy)but-1-ene] | < 50 | < 50 | – | – | < 50 | – | < 50 | < 50 | < 50 | < 50 | < 50 | < 50 | – | – | – | – | –
CC(C)(/C=C/c1ccc(F)cc1)COCc1ccc(F)c(Oc2ccccc2)c1 [Compound 6, 3,3-dimethyl-1-(4-fluorophenyl)-4-(4-fluoro-3-phenoxybenzyloxy)but-1-ene] | 80 to 100 | 80 to 100 | – | – | 50 to 79 | – | 80 to 100 | 80 to 100 | 80 to 100 | 80 to 100 | 80 to 100 | 80 to 100 | – | – | – | – | –
CC(C)(C=Cc1ccc(Cl)cc1)COCc1ccc(F)c(Oc2ccccc2)c1 [Compound 7, 3,3-Dimethyl-1-(4-chlorophenyl)-4-(4-fluoro-3-phenoxybenzyloxy)but-1-ene] | 80 to 100 | < 50 | – | – | < 50 | – | 80 to 100 | 80 to 100 | 80 to 100 | 80 to 100 | 80 to 100 | < 50 | – | – | – | – | –
Cc1ccc(C=CC(C)(C)COCc2ccc(F)c(Oc3ccccc3)c2)cc1 [Compound 8, 3,3-Dimethyl-1-(4-methylphenyl)-4-(4-fluoro-3-phenoxybenzyloxy)but-1-ene] | 80 to 100 | 50 to 79 | – | – | < 50 | – | 80 to 100 | 80 to 100 | 80 to 100 | 80 to 100 | 80 to 100 | 80 to 100 | – | – | – | – | –
CC(C)(C=Cc1ccccc1)COCc1ccc(F)c(Oc2ccccc2)c1 [Compound 9, 3,3-Dimethyl-1-phenyl-4-(4-fluoro-3-phenoxybenzyloxy)but-1-ene] | 80 to 100 | < 50 | – | – | < 50 | – | 80 to 100 | 80 to 100 | 80 to 100 | 80 to 100 | 80 to 100 | 80 to 100 | – | – | – | – | –
CCOc1ccc(/C=C/C(C)(C)COCc2ccc(F)c(Oc3ccccc3)c2)cc1 [Compound 10, 3,3-Dimethyl-1-(4-ethoxyphenyl)-4-(4-fluoro-3-phenoxybenzyloxy)but-1-ene] | 50 to 79 | < 50 | – | – | < 50 | – | 80 to 100 | 50 to 79 | 80 to 100 | < 50 | 50 to 79 | < 50 | – | – | – | – | –
CC(C)(C=Cc1ccc(F)cc1)COCc1cccc(Oc2ccccc2)c1 [Compound 11, 3,3-Dimethyl-1-(4-fluorophenyl)-4-(3-phenoxybenzyloxy)but-1-ene] | 80 to 100 | < 50 | – | – | < 50 | – | 80 to 100 | 50 to 79 | 80 to 100 | 50 to 79 | < 50 | 80 to 100 | – | – | – | – | –
CC(C)(/C=C/c1ccc(C(F)(F)F)cc1)COCc1cccc(Oc2ccccc2)c1 [Compound 12, 3,3-dimethyl-1-(4-trifluoromethylphenyl)-4-(3-phenoxybenzyloxy)but-1-ene] | < 50 | 50 to 79 | – | – | < 50 | – | < 50 | < 50 | 80 to 100 | < 50 | 50 to 79 | 80 to 100 | – | – | – | – | –
CC(C)(C=Cc1ccc(Cl)cc1)COCc1cccc(Oc2ccccc2)c1 [Compound 13, 3,3-Dimethyl-1-(4-chlorophenyl)-4-(3-phenoxybenzyloxy)but-1-ene] | – | – | A (A indicates 80-100% mortality or knockdown) | A (A indicates 80-100% mortality or knockdown) | – | A (A indicates 80-100% mortality or knockdown) | – | – | – | – | – | – | A (A indicates 80-100% mortality or knockdown) | C (C indicates less than 50% mortality or knockdown) | B (B indicates 50-79% mortality or knockdown) | B (B indicates 50-79% mortality or knockdown) | A (A indicates 80-100% mortality or knockdown)
CCC(C)(/C=C/c1ccc(Cl)cc1)COCc1cccc(Oc2ccccc2)c1 (stereo not shown) [Compound 25, 3-Ethyl-3-methyl-1-(4-chlorophenyl)-4-(3-phenoxybenzyloxy)but-1-ene] | < 50 | 80 to 100 | – | – | < 50 | – | 80 to 100 | 50 to 79 | – | < 50 | 50 to 79 | 50 to 79 | – | – | – | – | –

Source: patent US4705900A, “Insecticidal alkenes” (Imperial Chemical Industries PLC, priority 1985, dated 1987)
